Experimental data published in EP3727588B1, “ACTIVATOR PEPTIDES OF THE ENZYME ADAM 10 AND RELATED USES IN THE TREATMENT OF ALZHEIMER'S DISEASE” (UNIVERSITA' DEGLI STUDI DI MILANO, priority 2017, dated 2019).
Where “and” joins values, the source holds several entries; their conditions need not be identical. Equal values may be shown once. Peptide text beside a SMILES is read from it.

What was measured:
[1] = blood count and platelet count after 14 days' treatment; assay type: in vivo, mice; set-up: key to Aggregate s: +, ++, +++ considering the presence of platelet aggregates detected in the blood smear that make the analysis difficult; +, ++, +++ considering the presence of platelet aggregates detected in the blood smear that make the analysis difficult; +, ++, +++ considering the presence of platelet aggregates detected in the blood smear that make the analysis difficult; key to Estimate Plt: A= appropriate platelet estimate
Experimental: (§1) C57/BL6 adult mice were treated for 14 days with daily intraperitoneal injection of saline solution or peptides at a dose of 3 nmol/g (6-10 animals per experimental group). The animals were maintained in an enclosure at 25 ± 2 °C with an alternating light/dark cycle of 12 hours and had free access to water and food in the form of pellets (standard diet).
The blood, collected through cardiac puncture, was analysed with a laser counter (ADVIA 120, Siemens) using specific software for the murine species. From each sample a blood smear was prepared, stained with the May Grünwald-Giemsa method, and used for the morphological analysis of the leukocytes, the red blood cells and the platelet estimate. After the automatic counting of the cells and the preparation of the smear, all the samples were centrifuged and the plasma was transferred into separate test tubes. The analysis of the plasma samples was performed through automatic spectrophotometer (ILAB-300, Instrumentation Laboratory). All the results were compared with the values provided by the company Charles River for mice of the same strain and age.
The range values are provided by Charles River for C57BL mice aged between 56-70 days, whose blood was collected by cardiac puncture after euthanasia.

[2] = test system: T1, ADAM10/AP2 complex (Rattus norvegicus); experiment: co-immunoprecipitation of ADAM10 with AP2 (α-adaptin) in acute hippocampal slices; assay type: cell-based; settings: 10 µM, 30 min
T1 construct: endogenous in cells; host or cells: primary hippocampal neurons of rat embryos, DIV14
Experimental: (§2) The acute hippocampal slices were obtained from rat brain. After carefully removing the meninges, the hippocampus was isolated and dissected using the McIlwain tissue chopper. The hippocampal slices were then transferred into supports containing Krebs buffer, in the presence of a constant flow of 95% O2 and 5% CO2 5% (v/v). The acute slices were kept for 45 min at ambient temperature before proceeding with treatment with the peptide.
(§3) For the treatments of the acute hippocampal slices, all the peptides were diluted in Krebs buffer at a concentration of 10µM. The treatments were performed for 30 minutes and subsequently the sample was immediately frozen.
(§4) For the co-immunoprecipitation experiments, aliquots of 40-100 µg of lysate were incubated at 4°C in RIA 1X buffer (NaCl 200 mM, EDTA 10 mM, Na2HPO4 10 mM, Nonidet P-40, 0.5% and 0.1% SDS) in a final volume of 150 µl with 1-2 µg of antibody. The following day the protein complex A/G (Santa Cruz Biotechnology) was added, conjugated with agarose marbles, and the incubation was continued for 2 hours. After three washes with RIA buffer the samples were loaded onto SDS-PAGE and analysed through Western Blot.
(§5) The quantization of the Western Blot analyses was performed through an image analysis program (ImageLab -BioRad). The levels of proteins were expressed as optical density (OD) related to the different measurements and were normalized on respective tubulin levels.
(§6) The samples were then processed, and the total homogenate was used to evaluate the interaction levels between ADAM10 and the complex AP2. The co-immunoprecipitation experiment (co-IP), performed using an anti-ADAM10 antibody, made it possible to verify that two of the three peptides (PEP2 (SEQ ID NO:2) and PEP3 (SEQ ID NO:1)) were able to interfere with the interaction between ADAM10 and α-adaptin, one of the subunits that constitutes the complex AP2 (Figure 1A).

ADAM10/AP2 complex = target: T2, ADAM10/AP2 complex (Rattus norvegicus, UniProt P62944); experiment: as above; assay type: cell-based; settings: 10 µM, 30 minutes
T2 construct: endogenous in cells; host or cells: primary hippocampal neurons of rat embryos, DIV14
Experimental: as §2, §3, §4, §5, §6

[3] = body weight and food intake during 14 days' treatment; assay type: in vivo; settings: C57BL/6 mice, daily intraperitoneal 3 nmol/g
Experimental: as §1
For the entire duration of the treatment, on a daily basis, the weight and food intake of each animal were monitored and recorded, in order to evaluate any changes caused by the treatment. 24 hours after the last injection the mice were anaesthetized, and then the blood was taken through cardiac puncture, whereas the brain and liver of the animal were rapidly dissected to perform biochemical or immunohistological analyses.
The body weight and food intake were monitored and recorded on a daily basis.

[4] = blood-brain barrier crossing, anti-TAT immunohistochemistry on coronal brain sections; assay type: in vivo; settings: C57BL/6 mice, intraperitoneal injection 3 nmoles/g, 24 hours
Experimental: For the immunohistochemistry analyses, mice treated with the peptide were anaesthetized deeply and subjected to transcardial perfusion with 4% paraformaldehyde (prepared in PBS, pH 7.2-7.4), through the use of a peristaltic pump. The fixing liquid was inserted into the blood circulation through the left ventricle and after 10 minutes the brain was isolated. The sample was then post-fixed for 1 hour and 30 minutes at 4°C, then washed with PBS 1X and placed o/n in a 30% sucrose solution. The following day the sample was washed again with PBS 1X cut with the vibratome obtaining coronal sections of 50µm. Then the sections were stained through free-floating immunofluorescence technique. The fluorescence images were acquired using the Zeiss Confocal LSM510 Meta system with 63x objective at a resolution of 1024x1024 pixels. […]
The coronal sections were incubated with a specific antibody for the identification of the MAP2 neurons, and an antibody able to recognize the TAT sequence of HIV-1 present in the CPPs. As shown by the arrows in Figure 6, the presence of a specific signal of the anti-TAT antibody can be identified, which can only be detected in the coronal sections of brain of animals treated with CPPs. […] In the brain of animals only treated with saline solution (Figure 6, panel A), such signal cannot be detected.

[5] = individual animal, 14 days, daily intraperitoneal 3 nmol/g

T2 sequence (P18484 whole entry): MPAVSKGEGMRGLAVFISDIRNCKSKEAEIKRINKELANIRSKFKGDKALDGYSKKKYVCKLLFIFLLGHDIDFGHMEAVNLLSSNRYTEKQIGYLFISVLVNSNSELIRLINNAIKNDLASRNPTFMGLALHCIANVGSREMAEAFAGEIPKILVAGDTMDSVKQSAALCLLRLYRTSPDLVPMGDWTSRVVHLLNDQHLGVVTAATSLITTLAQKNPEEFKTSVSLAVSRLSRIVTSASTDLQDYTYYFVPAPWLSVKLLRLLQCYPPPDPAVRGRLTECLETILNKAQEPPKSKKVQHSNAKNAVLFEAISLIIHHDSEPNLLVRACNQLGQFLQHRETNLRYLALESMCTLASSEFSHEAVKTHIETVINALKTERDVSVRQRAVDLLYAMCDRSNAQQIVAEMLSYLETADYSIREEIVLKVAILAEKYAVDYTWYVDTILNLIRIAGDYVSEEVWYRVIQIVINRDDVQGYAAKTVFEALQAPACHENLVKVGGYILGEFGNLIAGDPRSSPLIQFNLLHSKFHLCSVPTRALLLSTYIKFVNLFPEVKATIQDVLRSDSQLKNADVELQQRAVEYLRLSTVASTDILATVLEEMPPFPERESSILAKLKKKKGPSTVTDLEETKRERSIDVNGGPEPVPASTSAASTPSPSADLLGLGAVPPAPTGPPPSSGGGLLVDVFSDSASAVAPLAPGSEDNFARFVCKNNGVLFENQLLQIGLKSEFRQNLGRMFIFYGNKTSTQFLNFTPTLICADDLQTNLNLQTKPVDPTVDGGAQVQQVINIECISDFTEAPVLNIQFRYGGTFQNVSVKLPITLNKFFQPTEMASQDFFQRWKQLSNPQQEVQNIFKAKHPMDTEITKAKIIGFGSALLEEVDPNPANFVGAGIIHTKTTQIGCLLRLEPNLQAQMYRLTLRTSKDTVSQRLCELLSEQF
T2 sequence (P62744 whole entry, further chain): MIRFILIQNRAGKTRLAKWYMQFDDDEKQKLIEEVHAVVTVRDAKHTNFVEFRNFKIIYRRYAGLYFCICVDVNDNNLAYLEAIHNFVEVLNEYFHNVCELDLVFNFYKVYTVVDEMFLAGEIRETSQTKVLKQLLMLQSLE
T2 sequence (P84092 whole entry, further chain): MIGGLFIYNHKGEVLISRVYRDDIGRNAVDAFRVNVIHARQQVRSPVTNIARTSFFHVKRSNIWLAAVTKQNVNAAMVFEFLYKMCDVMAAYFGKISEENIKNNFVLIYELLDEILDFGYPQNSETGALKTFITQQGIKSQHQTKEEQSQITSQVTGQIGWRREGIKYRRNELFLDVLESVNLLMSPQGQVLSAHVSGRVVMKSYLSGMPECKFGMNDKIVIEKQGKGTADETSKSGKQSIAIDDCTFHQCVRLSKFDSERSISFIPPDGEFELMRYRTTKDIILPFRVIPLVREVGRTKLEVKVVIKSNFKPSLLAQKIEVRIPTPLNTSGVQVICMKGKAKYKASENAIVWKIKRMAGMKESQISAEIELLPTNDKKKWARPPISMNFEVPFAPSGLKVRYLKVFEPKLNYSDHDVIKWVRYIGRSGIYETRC
T2 sequence (P62944 whole entry): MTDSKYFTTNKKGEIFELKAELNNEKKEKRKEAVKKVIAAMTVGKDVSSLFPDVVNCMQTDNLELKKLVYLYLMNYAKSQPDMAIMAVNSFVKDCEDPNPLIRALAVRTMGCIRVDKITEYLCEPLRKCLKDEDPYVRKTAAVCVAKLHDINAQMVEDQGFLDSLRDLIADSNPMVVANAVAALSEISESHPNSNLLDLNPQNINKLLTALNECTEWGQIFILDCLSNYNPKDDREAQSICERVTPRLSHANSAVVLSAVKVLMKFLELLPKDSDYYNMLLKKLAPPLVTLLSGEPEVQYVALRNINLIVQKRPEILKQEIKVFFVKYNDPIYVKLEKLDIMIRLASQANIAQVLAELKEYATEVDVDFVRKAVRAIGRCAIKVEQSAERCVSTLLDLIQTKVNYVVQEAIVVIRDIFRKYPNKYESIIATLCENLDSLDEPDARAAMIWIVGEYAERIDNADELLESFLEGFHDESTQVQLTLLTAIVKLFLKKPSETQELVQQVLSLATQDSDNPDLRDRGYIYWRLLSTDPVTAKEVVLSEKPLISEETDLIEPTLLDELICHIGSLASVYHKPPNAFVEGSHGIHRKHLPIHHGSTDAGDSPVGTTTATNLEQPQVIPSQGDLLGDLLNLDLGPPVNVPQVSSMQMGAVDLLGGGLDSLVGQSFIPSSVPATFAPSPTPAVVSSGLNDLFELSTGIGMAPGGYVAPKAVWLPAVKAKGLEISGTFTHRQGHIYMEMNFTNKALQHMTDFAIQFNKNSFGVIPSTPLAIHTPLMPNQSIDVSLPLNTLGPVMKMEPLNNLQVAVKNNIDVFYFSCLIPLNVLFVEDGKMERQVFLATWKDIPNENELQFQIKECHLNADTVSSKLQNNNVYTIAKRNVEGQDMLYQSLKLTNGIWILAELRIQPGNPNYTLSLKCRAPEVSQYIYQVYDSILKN
T1 sequence (P18484 whole entry): as the sequence (P18484 whole entry) above
T1 sequence (P62744 whole entry, further chain): as the sequence (P62744 whole entry, further chain) above
T1 sequence (P84092 whole entry, further chain): as the sequence (P84092 whole entry, further chain) above
T1 sequence (P62944 whole entry, further chain): as the sequence (P62944 whole entry) above

N=C(N)NCCC[C@H](NC(=O)CNC(=O)[C@@H](N)Cc1ccc(O)cc1)C(=O)N[C@@H](CCCCN)C(=O)N[C@@H](CCCCN)C(=O)N[C@@H](CCCNC(=N)N)C(=O)N[C@@H](CCCNC(=N)N)C(=O)N[C@@H](CCC(N)=O)C(=O)N[C@@H](CCCNC(=N)N)C(=O)N[C@@H](CCCNC(=N)N)C(=O)N[C@@H](CCCNC(=N)N)C(=O)NCC(=O)NCC(=O)N[C@@H](CO)C(=O)NCC(=O)N[C@@H](CCC(N)=O)C(=O)N1CCC[C@H]1C(=O)N1CCC[C@H]1C(=O)N[C@@H](CCCNC(=N)N)C(=O)N[C@@H](CCC(N)=O)C(=O)N[C@@H](CCCNC(=N)N)C(=O)N1CCC[C@H]1C(=O)N[C@@H](CCCNC(=N)N)C(=O)NCC(=O)O [PEP3] (H-YGRKKRRQRRRGGSGQPPRQRPRG-OH)
(Ht) ([1]; group mean): 46.2% | Hb ([1]; group mean): 11.8 g/dL | Mean Corpuscula r Hb (MCH) ([1]; group mean): 13.5 pg | Mean Corpuscula r Hb Conc. MCHC ([1]; group mean): 25.6% | Platelet count ([1]; group mean): 999000 µL⁻¹ | Red blood cells ([1]; group mean): 8.74e+06 µL⁻¹ | Red cell distribution width (RDW) ([1]; group mean): 19.5% | Vol. Mean Corp. Vol. (MCV) ([1]; group mean): 52.9 fL | (Ht) ([1]; group median): -46.9% | Hb ([1]; group median): -11.9 g/dL | Mean Corpuscula r Hb Conc. MCHC ([1]; group median): -25.8% | Platelet count ([1]; group median): -1.082e+06 µL⁻¹ | Red blood cells ([1]; group median): -8.8e+06 µL⁻¹ | Red cell distribution width (RDW) ([1]; group median): -19.7% | Vol. Mean Corp. Vol. (MCV) ([1]; group median): -53.1 fL | Estimate Plt ([1]; individual animal, blood smear, first part of cell): A | Aggregate s ([1]; individual animal, blood smear, second part of cell): +++ | (Ht) [1, 5]: 41.5% and 47.4% and 48.5% and 48% and 46.3% and 45.7% | Hb [1, 5]: 10.9 g/dL and 11.7 g/dL and 12.5 g/dL and 11.9 g/dL (3×) | Mean Corpuscula r Hb (MCH) [1, 5]: 13.4 Pg (2×) and 13.8 Pg and 13.3 Pg and 13.5 Pg and 13.6 Pg | Mean Corpuscula r Hb Conc. MCHC [1, 5]: 26.3% and 24.7% and 25.8% and 24.8% and 25.7% and 26% | Platelet count [1, 5]: 861000 µL⁻¹ and 711000 µL⁻¹ and 1.333e+06 µL⁻¹ and 391000 µL⁻¹ and 1.302e+06 µL⁻¹ and 1.394e+06 µL⁻¹ | Red blood cells [1, 5]: 8.14e+06 µL⁻¹ and 8.75e+06 µL⁻¹ and 9.04e+06 µL⁻¹ and 8.94e+06 µL⁻¹ and 8.84e+06 µL⁻¹ and 8.72e+06 µL⁻¹ | Red cell distribution width (RDW) [1, 5]: 18.7% and 19.3% and 19.9% (2×) and 19.7% (2×) | Vol. Mean Corp. Vol. (MCV) [1, 5]: 51 fL and 54.2 fL and 53.7 fL (2×) and 52.4 fL (2×) | PEP/inPEP ratio of optical density (OD), ADAM10/AP2 complex (α-adaptin) [2]: 37.40 ± 21.76% | reduction of the interaction between ADAM10 and α-adaptin (ADAM10/AP2 complex): 62.6% | food intake (ratio daily food intake / mean body weight) [3]: 97.09±2.18% | capacity to cross the blood-brain barrier (BBB) [4]: can cross the BBB and penetrate into the neuron cells
